Reference: patent US20140088006A1, “Stem Cell Mobilization and Tissue Repair and Regeneration” (Wellstat Therapeutics Corporation, priority 2011, published 2014)
Where “and” joins values, the source holds several entries; their conditions need not be identical. Identical values can stand only once. No end group written: not given here.

Key:
[1] = tested on: hematopoietic stem cells (HSC) and their hematopoietic progenitors (HPC); assay: CFU-GM / CFU-GEMM colony assay of peripheral blood mononuclear cells after single subcutaneous injection; format: in vivo, C57Bl6 mice
Description: C57Bl6 male mice, from 8 weeks to 4 month of age, from Harlan were used. Mice received subcutaneous injections of saline, Compound X (50 μg/kg) or Compound X (250 μg/kg). After 1 and 4 hours, mice were anesthetized and blood was collected through the orbital sinus with heparinized capillary tubes. 20 μl of blood was removed from each tube for WBC counts;
Remaining blood from each group was pooled and mononuclear cells were isolated by density gradient separation. To enumerate HSC and HPC in peripheral blood cells were washed, counted plated in semi-solid Methylcellulose MC3434 (Stem cell technology) at 100,000 per dish (5 dishes/group) and placed in CO2 incubator at 37° C. Colony-forming unit-granulocyte erythroid macrophage megakaryocyte (CFU-GEMM) and Colony-forming unit-granulocyte macrophage (CFU-GM) were detected under inverted microscope 7 and 10 days after.
In this experiment, C57Bl6 mice received subcutaneous injections of PBS, Compound X (250 μg/kg) or AMD3100 (5 mg/kg). After 1 hr blood was collected through the orbital sinus with heparinized capillary tubes. Blood from each group was pooled, counted and mononuclear cells were isolated by density gradient separation. Cells were washed, counted and plated at 100,000 per dish (5 dishes/group) for CFU-GEMM and CFU-GM colonies. CFU-GEMM colonies were scored on day 14, while CFU-GM colonies on day 7 after plating in MC3434 (Stem cell Technology).

[2] = tested on: white blood cells in peripheral blood; assay: White blood cell number after 4 daily subcutaneous injections; format: in vivo, C57Bl/6 male mice; design: White blood cell number in peripheral blood: unit not given here; settings: for White blood cell number in peripheral blood: 1 hr after injection
Description: This example is based on a protocol for a 4-day course of once-daily Compound X injections into C57Bl/6 male mice similar to G-CSF. Two effective dose levels of Compound X were found previously to mobilize HSC 1 hr after single injection and were selected for this experiment. Four-month old C57Bl/6 male mice (Jackson Laboratories) were subcutaneously injected with 0.9% saline, 125 μg/kg Compound X or 250 μg/kg Compound X on days 1, 2, 3 and 4 as described in Table 4. Each day, one-hour post injections, peripheral blood from 3 mice per group was harvested from the orbital plexus into EDTA-containing tubes. On day 4, a femur and spleen were also removed from mice to assess by FACS whether any toxicity aroused from repeated injections of Compound X.
As in the previous example to determine mobilization of colony-forming cells out of the bone marrow, mononuclear cells from peripheral blood were plated into MethoCult 3434 media (Stem Cell Technologies). Briefly, after white blood cell counting, the remaining peripheral blood was diluted (1:1, v/v) with 0.9% saline (APP Pharmaceutical) and layered (2:1, v/v) onto 1-Step™1.077 A (Accurate Chemicals) in 15-ml centrifuge tubes. Cells were centrifuged at 600×g for 20 min at room temperature. The mononuclear cells were harvested from the interface between the plasma layer and the 1-Step™ A solution using a 1-ml syringe and blunt-end needle. The cells were transferred to 15-ml centrifuge tubes and washed twice in 1×PBS. Cells were resuspended in 1 ml of IMDM and cell counts were obtained using the Coulter counter. Cells were placed into 35-mm Petri dishes at 200,000 cells per dish with 5 dishes per group. Cells incubated for 10 days in a 37° C. and 5% CO2 humidified incubator. CFU colonies were then scored using an inverted microscope—CFU-GM detected on day 7 and CFU-GEMM—on day 10. Data presented in Tables 7, 8 and 9, FIGS. 3 and 4.

[3] = tested on: white blood cells in peripheral blood; assay: White blood cell count after 4 daily injections of G-CSF and Compound X; format: in vivo, mice; settings: 5 μg/mouse each agent s.c. daily for 4 days, pooled blood
Description: Compound X and Neupogen (rG-CSF Amgen, lot# P043601) were diluted in PBS. Mice received subcutaneous injections of PBS, Compound X (5 μg/mouse), G-CSF (5 μg/mouse) or Compound X (5 μg/mouse)+G-CSF (5 μg/mouse) for four consecutive days. On the last day of injections, 1 hour post injections, blood was collected through the orbital sinus with heparinized capillary tubes. Blood was pooled from 3 mice/group and white blood cell counts were obtained. Mononuclear cells were isolated by density gradient separation from pooled blood. Cells were washed, counted and plated at 100,000 per dish (5 dishes/group) for CFU-mix and CFU-GM colonies. Blood was also collected and processed on day 8 for colony assay. Results are shown in Tables 10, 11, and 12 and in FIG. 5.

[4] = s.c. 250 μg/kg, 1 hour, individual dishes

FPHFDLSHGSAQV [Compound X, tridecapeptide that acts on stem cells]
increase in number of HSC HPC in blood ([1]; 1 hr after s.c. injection): up to 5 times | doses with mobilizing activity ([1]; doses tested from 5 μg/kg up to 5 mg): 125 to 500 µg/kg | CFU-GEMM, MEAN ([1]; s.c. 250 μg/kg, 1 hour): 3.8 per 100,000 cells | CFU-GM (day 7), MEAN ([1]; s.c. 250 μg/kg, 1 hour): 4 per 100,000 cells | CFU-GEMM [1, 4]: 6 per 100,000 cells and 3 per 100,000 cells (3×) and 4 per 100,000 cells | CFU-GM (day 7) [1, 4]: 3 per 100,000 cells (2×) and 6 per 100,000 cells and 4 per 100,000 cells (2×) | number of white blood cells and CFU-GM in peripheral blood ([1]; s.c. 250 μg/kg, 1 hr): did not change | increase of CFU-GEMM number in peripheral blood ([1]; s.c. 250 μg/kg, 1 hr, vs PBS): 3.8 times | CFU-GM + CFU-GEMM, MEAN ([1]; single s.c. 50 μg/kg, 1 hour): 5 per 100000 cells | CFU-GM + CFU-GEMM ([1]; single s.c. 50 μg/kg, 1 hour, individual dishes): 5 per 100000 cells and 6 per 100000 cells and 4 per 100000 cells and 3 per 100000 cells and 7 per 100000 cells | CFU-GM + CFU-GEMM, MEAN ([1]; single s.c. 50 μg/kg, 4 hour): 0.6 per 100000 cells | CFU-GM + CFU-GEMM ([1]; single s.c. 50 μg/kg, 4 hour, individual dishes): 1 per 100000 cells (3×) and 0 per 100000 cells (2×) | CFU-GM + CFU-GEMM, MEAN ([1]; single s.c. 250 μg/kg, 1 hour): 25 per 100000 cells | CFU-GM + CFU-GEMM ([1]; single s.c. 250 μg/kg, 1 hour, individual dishes): 24 per 100000 cells (2×) and 20 per 100000 cells and 28 per 100000 cells and 29 per 100000 cells | CFU-GM + CFU-GEMM, MEAN ([1]; single s.c. 250 μg/kg, 4 hour): 1.4 per 100000 cells | CFU-GM + CFU-GEMM ([1]; single s.c. 250 μg/kg, 4 hour, individual dishes): 1 per 100000 cells (4×) and 3 per 100000 cells | stem cell number (HSC) in circulation ([1]; within 1 hr after injection, from approximately 100 HSC under homeostatic conditions): 300-400 HSC | White blood cell number in peripheral blood ([2]; 125 μg/kg s.c. daily, Day 1): 7.4 | White blood cell number in peripheral blood ([2]; 125 μg/kg s.c. daily, Day 2): 8.8 | White blood cell number in peripheral blood ([2]; 125 μg/kg s.c. daily, Day 3): 6.0 | White blood cell number in peripheral blood ([2]; 125 μg/kg s.c. daily, Day 4): 8.6 | White blood cell number in peripheral blood ([2]; 250 μg/kg s.c. daily, Day 1): 8.6 | White blood cell number in peripheral blood ([2]; 250 μg/kg s.c. daily, Day 2): 8.2 | White blood cell number in peripheral blood ([2]; 250 μg/kg s.c. daily, Day 3): 10.2 | White blood cell number in peripheral blood ([2]; 250 μg/kg s.c. daily, Day 4): 9.2 | White blood cell number ([2]; multiple daily injections, 125 and 250 μg/kg): did not change | White Blood Cell counts: Cell Count ([3]; Day 4, 1 hour post injection): 7.3 ×10^6 | White Blood Cell counts: Cell Count ([3]; Day 8): 6.1 ×10^6
